Reference: patent US20080114066A1, “Synergistic Effects Of Docosahexaenoic Acid (DHA) And Carotenoid Absorption Of Cognitive Function” (Trustees of Tufts College, priority 2005, published 2008)

Legend:
Type in all cases: in vivo, human
[1] = tested on: non-smoking women (60-80 years); test: NES2 Pattern Comparison (Pattern Recognition) Test; details: group mean
From the text: (§1) Subjects: Fifty non-smoking women (60-80 years) were recruited from the general population for a 4 month supplementation study. All subjects underwent a screening examination that includes a medical history, a physical examination, and a routine blood clinical chemistry profile. Volunteers with any history or biochemical evidence of lactose intolerance, liver, kidney, or pancreatic disease, anemia, active bowel disease or resection, insulin-dependent diabetes, easy bruising or bleeding, bleeding disorders, hyperglyceridemia, hyperlipidproteinemia, or alcoholism were excluded from the study. Moreover, individuals taking mineral oil or medications suspected of interfering with fat-soluble vitamin absorption were excluded. Subjects using steroids or non-steroid anti-inflammatory drugs, or antihistamine drugs were excluded. […] Subjects were excluded if they have taken any nutrient supplement for 2 months or more before admission into the study or carotene supplements 6 months or more before the study. Smoking was not permitted during the course of the study.
(§2) Women were randomly assigned to one of four groups: Control (n=10), DHA (n=14, DHA 800 mg/d), lutein (n=12, lutein 12 mg/d), and lutein+DHA (n=14, lutein 12 mg/d; DHA 800 mg/d) (C, D, L, and LD, respectively). The supplement type was randomized. Subjects visited the Jean Mayer USDA Human Nutrition Research Center on Aging at Tufts University on days that supplements were distributed and blood obtained (0 mo-baseline, 2 mo, and 4 mo). Subjects were instructed to take the supplement with a nutritional energy drink (8 oz., Boost®, Mead Johnson Nutritionals) but were otherwise asked to not alter their diets. The diet of each subject was monitored with food frequency questionnaires (Block G, et al., A data-based approach to diet questionnaire design and testing. Am J Epidemiol, 1986. 24: p. 453-469) completed at baseline, 2 months and 4 months to be sure that there were no confounding changes in dietary intake. All subjects completed at least two sets of cognitive and mood self-report tests, at the beginning of the study, then at the end of the study, after four months of supplementation, at the Schepens Eye Research Institute. Compliance was by monitored by interview, compliance calendars and capsule count. Both the subjects and the experimenter were masked to the experimental groups. Blood samples were collected at baseline, 2 months and 4 months, and serum was separated from red blood cells (800×g, 10 minutes). Aliquots of serum are stored at −70° C. until analyzed. At baseline and 2 months, a two month supply of placebo supplements, DHA (800 mg/d, DHASCO, Martek Biological Sciences), lutein (12 mg/d plus 0.5 mg zeaxanthin, Kemin Foods), or lutein+DHA (12 mg/d and 800 mg/d, respectively and nutritional energy drink was provided. At baseline and 4 months, subjects visited the Schepens Eye Research Institute (Boston, Mass.) for testing of MP optical density (MPOD) and an ophthalmic exam. There were two visits at each time point.
(§3) Supplementation Protocol. Dietary supplements in capsule form were Lutein (12 mg/day) (Kemin Foods) and Docosahexaenoic Acid (DHASCO) (800 mg/day) (Martek Biological Sciences). Participants in each of the four supplementation groups were instructed to drink one can of a nutritional supplement daily (Boost Plus) (Mead Johnson) when taking their capsules. Subjects ingested their dietary supplements daily for a period of 4 months. Both the subjects and the experimenter were masked to the experimental groups.
(§4) Tests and Measurements. The battery of cognitive tests included tests of memory and processing speed or attention and a measure of self-reported mood. […] Early cognitive markers of the incidence of dementia and mortality: A longitudinal population-based study of the oldest old. International Journal of Geriatric Psychiatry, 12, 53-59; Payton, M., Riggs, K. M., Spiro III, A., Weiss, S. T. & Hu, H. (1998). […]

macular pigment = test: Macular pigment optical density (MPOD), psychophysical method; details: for Mean increase in total MPOD (change from baseline): 4 months of supplementation, area under the curve of 5 loci, mean ± se
Protocol: as §2
The method of assessing MPOD involves a three-channel Maxwellian view optical system and used a psycho physical method described by Hammond et al. (Hammond B. R., et al., Vision Res, 1996. 36: p. 2001-2012). […] MPOD was measured in two baseline sessions on separate days and in two sessions on separate days at the end of 4 months of supplementation.
Differences between cognitive and mood scores at baseline and after supplementation were tested by Student's t test for each treatment group. In the case of those variables where a significant change was found from baseline to end of study, correlations were calculated between age, education, serum levels of DHA and lutein, and test scores, for those test scores where the distribution was normal or near-normal. […]

[2] = tested on: non-smoking women (60-80 years); test: Shopping List Task (memory test); details: group mean
From the text: as §1, §2, §3, §4

[3] = tested on: non-smoking women (60-80 years); test: NES2 Mood Scales (self-reported mood); set-up: scale not given here; details: group mean
From the text: as §1, §2, §3, §4

[4] = Serum DHA by gas-liquid chromatography; details: after 2 and 4 months of supplementation
Protocol: Women were randomly assigned to one of four groups: Control (n=10), DHA (n=14, DHA 800 mg/d), lutein (n=12, lutein 12 mg/d), and lutein+DHA (n=14, lutein 12 mg/d; DHA 800 mg/d) (C, D, L, and LD, respectively). The supplement type was randomized. Subjects visited the Jean Mayer USDA Human Nutrition Research Center on Aging at Tufts University on days that supplements were distributed and blood obtained (0 mo-baseline, 2 mo, and 4 mo). Subjects were instructed to take the supplement with a nutritional energy drink (8 oz., Boost®, Mead Johnson Nutritionals) but were otherwise asked to not alter their diets. The diet of each subject was monitored with food frequency questionnaires (Block G, et al., A data-based approach to diet questionnaire design and testing. Am J Epidemiol, 1986. 24: p. 453-469) completed at baseline, 2 months and 4 months to be sure that there were no confounding changes in dietary intake. […] Compliance was by monitored by interview, compliance calendars and capsule count. […] Aliquots of serum are stored at −70° C. until analyzed. […]
Serum carotenoids were extracted and analyzed by HPLC using the method described by Yeum et al. (Yeum, K. J., et al., Am J Clin Nutr, 1996. 64(4): p. 594-602.). […]
Results are expressed as mean ±SE. […]

[5] = Baseline, before supplementation
[6] = Final, after 4 months of supplementation

Compound	Pattern Recognition Test Mean Response Time-Correct [1, 5] [s]	Pattern Recognition Test Number Correct (max. 15) [1, 5]	Pattern Recognition Test Mean Response Time-Correct [1, 6] [s]	Pattern Recognition Test Number Correct (max. 15) [1, 6]	Mean increase in total MPOD (change from baseline) (macular pigment) [OD]	Shopping List Memory Test Delayed Recall (max. 10) [2, 5]	Shopping List Memory Test Trial 1 Items Recalled (max. 10) [2, 5]	Shopping List Memory Test Trials to Learned List (max. 6) [2, 5]	Shopping List Memory Test Delayed Recall (max. 10) [2, 6]	Shopping List Memory Test Trial 1 Items Recalled (max. 10) [2, 6]	Shopping List Memory Test Trials to Learned List (max. 6) [2, 6]	Mood Scales Anger [3, 5]	Mood Scales Confusion [3, 5]	Mood Scales Depression [3, 5]	Mood Scales Fatigue [3, 5]	Mood Scales Tension [3, 5]	Mood Scales Anger [3, 6]	Mood Scales Confusion [3, 6]	Mood Scales Depression [3, 6]	Mood Scales Fatigue [3, 6]	other results
CC/C=C\C/C=C\C/C=C\C/C=C\C/C=C\C/C=C\CCC(=O)O [DHA, cis-4,7,10,13,16,19-docosahexaenoic acid]	5.4	14.6	5.0	14.6	0.037±0.068	9.0	7.2	3.1	8.7	7.7	2.6	1.6	1.7	1.7	2.1	2.0	1.6	1.8	1.7	2.1	Retinal loci with significant increase in MPOD (macular pigment; 4 month change from baseline, loci 0.4°, 1.5°, 3°, 5°): 0.4°; Mood Scales Tension [3, 6]: 2.1
CC1=C[C@H](O)CC(C)(C)[C@H]1/C=C/C(C)=C/C=C/C(C)=C/C=C/C=C(C)/C=C/C=C(C)/C=C/C1=C(C)C[C@@H](O)CC1(C)C [Lutein, lutein]	6.1	14.5	6.4	14.3	0.370±0.140	8.3	6.9	4.2	7.6	6.5	3.9	1.4	1.9	1.5	2.4	2.1	1.5	2.4	1.8	2.9	Subjects without increase in MPOD (non responders) (macular pigment; 4 months of lutein supplementation): Two of 14; Serum concentration of DHA, change from baseline [4]: No significant changes; Mood Scales Tension [3, 6]: 2.4
